Type in all cases: cell-based
Experiment [1] deals with T1, PfCRT^Dd2 (Plasmodium falciparum, UniProt Q9N623, A220S/I356T/K76T/M74I/N326S/N75E/Q271E/R371I). The experiment in a line: [3H]CQ uptake into Xenopus oocytes, cis-inhibition by unlabelled solute. The following applies: PfCRTDd2 oocytes, background [3H]CQ accumulation subtracted, normalised to oocyte type control. Put shortly:
(§1)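 Inward transport into oocyte cytosol from pH 5.5 medium models PfCRT efflux from the acidic digestive vacuole. Incubation 1.5 h, 27.5 °C; termination by ice-cold washes; lysate radioactivity counted.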

The target of experiment [2] is T2, PfCRT^Ecu1110 (Plasmodium falciparum, UniProt Q9N623, A220S/I356L/K76T/N326D). The description is as above. The note with it: for PfCRT-mediated [3H]CQ transport, cis-inhibition (% PfCRTEcu1110 control): PfCRTEcu1110 oocytes, background [3H]CQ accumulation subtracted, normalised to oocyte type control; for [3H]CQ transport (% PfCRTEcu1110 control), cis-inhibition, PfCRTEcu1110: PfCRT-mediated component (background subtracted), sheet title says normalised to PfCRTDd2 control, mean ± SEM, SEM. Put shortly: as §1

In another experiment the target is PfCRT^3D7 (Plasmodium falciparum, UniProt Q8IBZ9). The experiment in a line: cell-based. The note with it: for PfCRT-mediated [3H]CQ transport, trans-stimulation (% PfCRT3D7 control): PfCRT3D7 oocytes, normalised to oocyte type control. Put shortly:
(§2)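 Oocytes (ten per treatment, ≥4 independent frogs/days) were preloaded by injecting VF-6 in 25 nL ND96 at pH 5.0, 5.5, 6.0 or 7.0, or Na^+-free choline buffer, then uptake run 1.5 h, 27.5 °C, ND96 pH 5.5 by default. Internal concentrations assumed ~400 nL oocyte volume.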

Experiment [3] has as its target T1, PfCRT^Dd2. As to the kind of experiment: cell-based. The following applies: for PfCRT-mediated [3H]CQ transport, trans-stimulation (% PfCRTDd2 control): PfCRTDd2 oocytes, normalised to oocyte type control; for [3H]CQ transport (% PfCRTDd2 control), trans-stimulation, PfCRTDd2: PfCRT-mediated component (background subtracted), mean ± SEM, SEM. Put shortly: as §2

Experiment [4] deals with T2, PfCRT^Ecu1110. As to the kind of experiment: cell-based. The following applies: for PfCRT-mediated [3H]CQ transport, trans-stimulation (% PfCRTEcu1110 control): PfCRTEcu1110 oocytes, normalised to oocyte type control; for [3H]CQ transport (% PfCRTDd2 control), trans-stimulation, PfCRTEcu1110: PfCRT-mediated component (background subtracted), sheet title says normalised to PfCRTDd2 control, mean ± SEM, SEM. Put shortly: as §2

Setting [5] is: [test solute]i = 5 mM (intracellular).
Setting [6] is: [test solute]i = 45 mM (intracellular; 30 mM for some solutes due to solubility).
Where [7] appears, read: [test solute]i = 5 mM (injected).
Setting [8] is: [test solute]i = 45 mM (30 mM for some solutes due to solubility).

T1 sequence (Q9N623 whole entry A220S/I356T/K76T/M74I/N326S/N75E/Q271E/R371I): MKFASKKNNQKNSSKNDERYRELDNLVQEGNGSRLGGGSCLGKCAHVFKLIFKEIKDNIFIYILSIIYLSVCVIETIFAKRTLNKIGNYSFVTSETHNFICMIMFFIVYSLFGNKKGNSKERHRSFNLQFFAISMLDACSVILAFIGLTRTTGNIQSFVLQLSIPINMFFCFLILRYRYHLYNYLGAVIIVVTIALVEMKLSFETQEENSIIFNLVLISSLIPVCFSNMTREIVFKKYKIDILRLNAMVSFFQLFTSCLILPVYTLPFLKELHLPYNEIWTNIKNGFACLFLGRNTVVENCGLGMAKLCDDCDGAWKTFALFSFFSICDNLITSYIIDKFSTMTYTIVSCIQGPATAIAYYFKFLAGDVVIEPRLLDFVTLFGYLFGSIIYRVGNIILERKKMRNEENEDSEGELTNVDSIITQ
Chain of PfCRT^3D7 (Q8IBZ9 59-398): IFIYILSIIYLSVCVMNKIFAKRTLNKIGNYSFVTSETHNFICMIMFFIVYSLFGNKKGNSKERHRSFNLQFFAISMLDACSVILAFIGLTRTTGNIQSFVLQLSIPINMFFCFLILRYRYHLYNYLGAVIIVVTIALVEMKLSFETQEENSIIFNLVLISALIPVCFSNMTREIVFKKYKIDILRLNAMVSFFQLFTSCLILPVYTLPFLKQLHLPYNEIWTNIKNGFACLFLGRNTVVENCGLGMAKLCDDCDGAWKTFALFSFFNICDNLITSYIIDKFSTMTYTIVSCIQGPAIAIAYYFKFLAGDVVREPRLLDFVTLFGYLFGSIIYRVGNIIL
T2 sequence (Q9N623 whole entry A220S/I356L/K76T/N326D): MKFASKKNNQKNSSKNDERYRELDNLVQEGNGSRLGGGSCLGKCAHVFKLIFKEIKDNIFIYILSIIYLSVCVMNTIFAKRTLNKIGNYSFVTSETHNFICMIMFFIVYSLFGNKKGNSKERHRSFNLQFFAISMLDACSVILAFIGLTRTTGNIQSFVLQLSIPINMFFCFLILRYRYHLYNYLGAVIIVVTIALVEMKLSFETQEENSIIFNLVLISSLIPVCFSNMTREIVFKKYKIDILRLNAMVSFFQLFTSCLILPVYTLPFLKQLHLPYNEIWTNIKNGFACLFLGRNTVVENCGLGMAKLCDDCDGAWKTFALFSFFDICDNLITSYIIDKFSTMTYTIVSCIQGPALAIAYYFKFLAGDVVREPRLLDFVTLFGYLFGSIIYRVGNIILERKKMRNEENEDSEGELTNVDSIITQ

Regarding LSFPTTK [LK-7], the “PfCRT-mediated [3H]CQ transport, cis-inhibition (% PfCRTDd2 control)” value was 48 ± 2.6 % PfCRTDd2 control on PfCRT^Dd2 [1] ([test solute] = 0.5 mM), 37 ± 1.7 % PfCRTDd2 control on PfCRT^Dd2 [1] ([test solute] = 1 mM) and 18 ± 0.7 % PfCRTDd2 control at PfCRT^Dd2 [1] ([test solute] = 2 mM). Further, the “PfCRT-mediated [3H]CQ transport, cis-inhibition (% PfCRTEcu1110 control)” value is on record as 47 ± 1.1 % PfCRTEcu1110 control at PfCRT^Ecu1110 [2] ([test solute] = 0.5 mM), 33 ± 2.4 % PfCRTEcu1110 control at PfCRT^Ecu1110 [2] ([test solute] = 1 mM) and 17 ± 0.4 % PfCRTEcu1110 control on PfCRT^Ecu1110 [2] ([test solute] = 2 mM). Besides, the “[3H]CQ transport (% PfCRTEcu1110 control), cis-inhibition, PfCRTEcu1110” value at PfCRT^Ecu1110 [2] ([test solute] = 0.5 mM) is reported as 15 ± 0.1 % PfCRTEcu1110 control; on PfCRT^Ecu1110 [2] ([test solute] = 1 mM) it was 10 ± 0.4 % PfCRTEcu1110 control; on PfCRT^Ecu1110 [2] ([test solute] = 2 mM) it was 5.0 ± 0.05 % PfCRTEcu1110 control. In addition, the “[3H]CQ transport (% PfCRT3D7 control), trans-stimulation, PfCRT3D7” value on PfCRT^3D7 (SEM) is recorded as 0.1 ± 0.01. Further, the “PfCRT-mediated [3H]CQ transport, trans-stimulation (% PfCRT3D7 control)” value on PfCRT^3D7 (setting [5]) is on record as 93 ± 3.2 % PfCRT3D7 control; at PfCRT^3D7 (setting [6]), 94 ± 3.6 % PfCRT3D7 control. The “PfCRT-mediated [3H]CQ transport, trans-stimulation (% PfCRTDd2 control)” value on PfCRT^Dd2 [3] (setting [5]) was found to be 98 ± 4.3 % PfCRTDd2 control; on PfCRT^Dd2 [3] (setting [6]), 95 ± 3.3 % PfCRTDd2 control. Further, the “[3H]CQ transport (% PfCRTDd2 control), trans-stimulation, PfCRTDd2” value was determined as 98 ± 4.3 % PfCRTDd2 control at PfCRT^Dd2 [3] (setting [7]) and 95 ± 3.3 % PfCRTDd2 control at PfCRT^Dd2 [3] (setting [8]). Besides, the “PfCRT-mediated [3H]CQ transport, trans-stimulation (% PfCRTEcu1110 control)” value at PfCRT^Ecu1110 [4] (setting [5]) came out at 97 ± 3.3 % PfCRTEcu1110 control; on PfCRT^Ecu1110 [4] (setting [6]), 93 ± 3.7 % PfCRTEcu1110 control. In addition, the “[3H]CQ transport (% PfCRTDd2 control), trans-stimulation, PfCRTEcu1110” value at PfCRT^Ecu1110 [4] (setting [7]) is 29 ± 1.6 % PfCRTEcu1110 control; at PfCRT^Ecu1110 [4] (setting [8]) it was 29 ± 1.8 % PfCRTEcu1110 control.
As to PHFDLS [PS-6], the figures for the “PfCRT-mediated [3H]CQ transport, cis-inhibition (% PfCRTDd2 control)” value at PfCRT^Dd2 [1] ([test solute] = 0.5 mM), on PfCRT^Dd2 [1] ([test solute] = 1 mM) and on PfCRT^Dd2 [1] ([test solute] = 2 mM) were 46 ± 1.0 % PfCRTDd2 control, 32 ± 1.1 % PfCRTDd2 control and 17 ± 0.3 % PfCRTDd2 control, respectively. In addition, the “PfCRT-mediated [3H]CQ transport, cis-inhibition (% PfCRTEcu1110 control)” value at PfCRT^Ecu1110 [2] ([test solute] = 0.5 mM) is given as 41 ± 2.5 % PfCRTEcu1110 control; on PfCRT^Ecu1110 [2] ([test solute] = 1 mM) it was 33 ± 1.7 % PfCRTEcu1110 control; at PfCRT^Ecu1110 [2] ([test solute] = 2 mM), 21 ± 1.6 % PfCRTEcu1110 control. In addition, the “[3H]CQ transport (% PfCRTEcu1110 control), cis-inhibition, PfCRTEcu1110” value at PfCRT^Ecu1110 [2] ([test solute] = 2 mM) is given as 7.0 ± 0.01 % PfCRTEcu1110 control. For the same substance, the entries for the “PfCRT-mediated [3H]CQ transport, trans-stimulation (% PfCRT3D7 control)” value at PfCRT^3D7 (setting [5]) and on PfCRT^3D7 (setting [6]) were 140 ± 4.3 % PfCRT3D7 control and 188 ± 4.5 % PfCRT3D7 control, respectively. Also, the “PfCRT-mediated [3H]CQ transport, trans-stimulation (% PfCRTDd2 control)” value on PfCRT^Dd2 [3] (setting [5]) was determined as 96 ± 4.7 % PfCRTDd2 control; on PfCRT^Dd2 [3] (setting [6]), 95 ± 4.6 % PfCRTDd2 control. Also, the “[3H]CQ transport (% PfCRTDd2 control), trans-stimulation, PfCRTDd2” value is on record as 96 ± 4.7 % PfCRTDd2 control on PfCRT^Dd2 [3] (setting [7]) and 95 ± 4.6 % PfCRTDd2 control at PfCRT^Dd2 [3] (setting [8]). Moreover, the “PfCRT-mediated [3H]CQ transport, trans-stimulation (% PfCRTEcu1110 control)” value at PfCRT^Ecu1110 [4] (setting [5]) stood at 121 ± 4.5 % PfCRTEcu1110 control; on PfCRT^Ecu1110 [4] (setting [6]), 138 ± 4.6 % PfCRTEcu1110 control. Moreover, the “[3H]CQ transport (% PfCRTDd2 control), trans-stimulation, PfCRTEcu1110” value at PfCRT^Ecu1110 [4] (setting [7]) is given as 37 ± 1.4 % PfCRTEcu1110 control; on PfCRT^Ecu1110 [4] (setting [8]), 43 ± 1.3 % PfCRTEcu1110 control.
